Experiment [1] has as its system conscious rat with acute gastric fistula (gastric secretion). Put plainly: Anti-secretory activity in the conscious rat with acute gastric fistula. Format: in vivo, rat (fasted female rats). To be noted: 16 μg/Kg i.v., N 3 (A), 2 (B). As for the experimental part: That the compounds of this invention are active as anti-secretory and anti-ulcerogenic agents can be seen by administering the following compounds: Compound A= nat 11R-methyl-16R-fluoro-15R-hydroxy-9-oxo-prost-(Z)-5-enoic acid. Compound b= nat 11R-methyl-16R-fluoro-9,15-dioxo-prost-(Z)-5-enoic acid to rats by the following test:
The compounds were tested as gastric secretory depressants in the unanesthetized rat with acute gastric fistula. […] On the day of the experiment, water infusion through the stomach was begun for a period of 60 minutes prior to drug administration. During this baseline period, the pH of the secretory flow was about 1.5 for each animal. Individual samples were collected at 10-minute intervals during this baseline period to monitor the pH. The compound dissolved in saline was administered intravenously (i.v.), 16 μg/Kg i.v., after this baseline period and samples were continuously collected for 60 minutes. The samples of gastric contents were subsequently assayed for pH, volume, total acid content (μ Eq/ml) and total acid output for 10 minutes (μ Eq/10 minutes).

In experiment [2] the test system is DOCA-Na Hypertensive Rat Model. Briefly: Oral activity on systolic blood pressure in the DOCA-Na hypertensive rat model. Format: in vivo, rat (Charles River male rats). To be noted: N 6. As to the method:
That the compounds of this invention are active as blood pressure lowering agents can be seen from the administration of nat. 11R-methyl-16R-fluoro-9,15-dioxoprosta-(Z)-5-(E)-13-dienoic acid to rats by the following test:
Charles River male rats weighing 170-210 grams are used in the present study. DOCA-Na hypertension is induced in these rats by unilateral nephrectomy followed by subcutaneous implantation of a 25 mg deoxycorticosterone acetate pellet. Animals are placed in individual cages and receive 0.9% by weight sodium chloride aqueous solution and rat chow diet ad libitum. Two weeks are allowed to elapse from the time of surgery for development of hypertension, i.e. systolic blood pressure above 150 mmHg. Systolic blood pressure is measured indirectly from the tail of unanesthetized rats (restrained in holders heated for 5-10 minutes at 37°-38° C.) using a pneumatic pulse transducer (piezoelectric crystal and occluding cuff). The transducer and occluding cuff are coupled to a two-channel recorder. Control readings are taken prior to drug and at 1, 3, 6, 24, 48 and 72 hours post administration of drug. All drugs are prepared fresh in a mixture of tris(hydroxymethyl)amino methane in 95% ethanol (5% wt/V) and orally administered to rats. The placebo that was used was the mixture tris(hydroxymethyl)amino methane in ethanol without drug.

[3] abbreviates: 10 min after administration, rounded figures.
The mark [4] stands for this setting: 10 min after administration, rounded, 0 = no effect.
[5] abbreviates: 10 min after administration, rounded, 0 = no effect, or increase in the hydrogen ion concentration.
Setting [6] is: 20 min after administration, rounded figures.
Where [7] appears, read: 20 min after administration, rounded, 0 = no effect.
Where [8] appears, read: 30 min after administration, rounded figures.
Where [9] appears, read: 40 min after administration, rounded figures.
The mark [10] stands for this setting: 50 min after administration, rounded figures.
The mark [11] stands for this setting: 60 min after administration, rounded figures.
Setting [12] is: 60 min after administration, rounded, 0 = no effect.

In the case of `CCCC[C@@H](F)C(=O)CC[C@H]1[C@H](C)CC(=O)[C@@H]1C/C=C\CCCC(=O)O` [Compound B, nat 11R-methyl-16R-fluoro-9,15-dioxo-prost-(Z)-5-enoic acid], the “Acid Output, % Inhibition (calculated from μ Eq/10 min period of total acid output)” value in experiment [1] (setting [3]) was 40%; in experiment [1] (setting [6]), 22%; in experiment [1] (setting [8]), 15%; in experiment [1] (setting [9]), 14%; in experiment [1] (setting [10]), 20%; in experiment [1] (setting [11]) it was 48%. The “pH, % Increment over baseline” value in experiment [1] (setting [3]) is 2%; in experiment [1] (setting [6]), 2%; in experiment [1] (setting [8]) it was 2%; in experiment [1] (setting [9]) it was 2%; in experiment [1] (setting [10]), 2%; in experiment [1] (setting [11]), 5%. Further, the “Volume, % Inhibition” value in experiment [1] (setting [4]) was found to be 9%; in experiment [1] (setting [7]) it was 30%; in experiment [1] (setting [8]), 4%; in experiment [1] (setting [9]), 11%; in experiment [1] (setting [10]) it was 16%; in experiment [1] (setting [12]) it was 35%. Moreover, the “Acid Conc., % Inhibition (calculated from μ Eq/ml of total acid concentration)” value in experiment [1] (setting [5]) is listed as 33%; in experiment [1] (setting [6]), 6%; in experiment [1] (setting [8]), 11%; in experiment [1] (setting [9]), 2%; in experiment [1] (setting [10]) it was 15%; in experiment [1] (setting [11]), 19%.

Consider `CCCC[C@@H](F)C(=O)/C=C/[C@H]1[C@H](C)CC(=O)[C@@H]1C/C=C\CCCC(=O)O` [nat 11R-methyl-16R-fluoro-9,15-dioxoprosta-5(Z),13(E)-dienoic acid], for which the “Systolic Blood Pressure” value is reported as 200±6 mmHg in experiment [2] (1.0 mg/kg p.o., 1 h); 205±6 mmHg in experiment [2] (1.0 mg/kg p.o., 3 h); 203±8 mmHg in experiment [2] (1.0 mg/kg p.o., 6 h); 199±6 mmHg in experiment [2] (1.0 mg/kg p.o., 24 h); 196±6 mmHg in experiment [2] (1.0 mg/kg p.o., time 0 h (control reading prior to drug)); 175±2 mmHg in experiment [2] (5.0 mg/kg p.o., 1 h, * p<.05). Further, the “Systolic Blood Pressure” value in experiment [2] (5.0 mg/kg p.o., 3 h, * p<.05) is 167±4 mmHg; in experiment [2] (5.0 mg/kg p.o., 6 h, * p<.05) it was 166±3 mmHg; in experiment [2] (5.0 mg/kg p.o., 24 h, * p<.05), 163±4 mmHg; in experiment [2] (5.0 mg/kg p.o., 48 h, * p<.05), 171±7 mmHg; in experiment [2] (5.0 mg/kg p.o., 72 h), 193±6 mmHg; in experiment [2] (5.0 mg/kg p.o., time 0 h (control reading prior to drug)), 197±3 mmHg.

`CCCC[C@@H](F)[C@H](O)CC[C@H]1[C@H](C)CC(=O)[C@@H]1C/C=C\CCCC(=O)O` [Compound A, nat 11R-methyl-16R-fluoro-15R-hydroxy-9-oxo-prost-(Z)-5-enoic acid]: the “Acid Output, % Inhibition (calculated from μ Eq/10 min period of total acid output)” value in experiment [1] (setting [3]) was 4%; in experiment [1] (setting [6]), 17%; in experiment [1] (setting [8]) it was 33%; in experiment [1] (setting [9]), 26%; in experiment [1] (setting [10]) it was 43%; in experiment [1] (setting [11]), 25%. The “pH, % Increment over baseline” value amounted to 5% in experiment [1] (setting [3]); 6% in experiment [1] (setting [6]); 4% in experiment [1] (setting [8]); 5% in experiment [1] (setting [9]); 9% in experiment [1] (setting [10]); 9% in experiment [1] (setting [11]). For the same molecule, the “Volume, % Inhibition” value in experiment [1] (setting [4]) worked out at 0%; in experiment [1] (setting [7]), 0%; in experiment [1] (setting [8]) it was 58%; in experiment [1] (setting [9]), 21%; in experiment [1] (setting [10]), 9%; in experiment [1] (setting [12]), 0%. Moreover, the “Acid Conc., % Inhibition (calculated from μ Eq/ml of total acid concentration)” value is recorded as 0% in experiment [1] (setting [5]); 22% in experiment [1] (setting [6]); 20% in experiment [1] (setting [8]); 23% in experiment [1] (setting [9]); 38% in experiment [1] (setting [10]); 22% in experiment [1] (setting [11]).

These data come from patent US4163016A, “16-Substituted prostaglandins” (Hoffmann-La Roche Inc., priority 1977, dated 1979).
